Reference: patent EP3134439B1, “ANTI-PSYK ANTIBODY MOLECULES AND USE OF SAME FOR SYK-TARGETED THERAPY” (Millennium Pharmaceuticals, Inc., priority 2014, dated 2015)
Marks after values point to notes of the source that are not given here.

Experiments:
VEGFR = VEGFR enzyme inhibition; format: biochemical
DLBCL cell lines = experiment: Inhibition of cellular proliferation; format: cell-based; settings: subset of relevant models
[1] = test system: PHTX-95L primary DLBCL tumor xenografts; experiment: Anti-tumor activity, PHTX-95L xenograft model; format: in vivo, SCID mice
Excerpt: (§1) Mean tumor volumes (mm^3) ± SEM (N=8/group) are shown where treatment was initiated when mean tumor volume was approximately 200 mm3.

[2] = test system: OCI-LY10 ABC DLBCL xenografts; experiment: Anti-tumor activity, OCI-LY10 xenograft model; format: in vivo, SCID mice
Excerpt: as §1

HBL-1 (ABC) = experiment: Anti-tumor activity, HBL-1 xenograft model; format: in vivo
TMD8 (ABC) = experiment: Anti-tumor activity, TMD8 xenograft model; format: in vivo; settings: 60 mg/kg; TGI calculated on Day 14
WSU = experiment: Anti-tumor activity, WSU xenograft model; format: in vivo
[3] = test system: OCI-LY19 GCB DLBCL xenografts; experiment: Anti-tumor activity, OCI-LY19 xenograft model; format: in vivo, SCID mice
Excerpt: as §1

[4] = 60 mg/kg orally once daily for 21 days
[5] = 120 mg/kg orally once daily for 21 days
[6] = daily oral administration of 60 mg/kg

`Cn1cc(-c2nc(N[C@@H]3CCCC[C@@H]3N)c(F)c3c2C(=O)NC3)cn1` [Compound A, 6-((1R,2S)-2-Aminocyclohexylamino)-7-fluoro-4-(1-methyl-1H-pyrazol-4-yl)-1H-pyrrolo[3,4-c]pyridin-3(2H)-one] gave an IC50 (VEGFR) of 140 nM, an EC50 (DLBCL cell lines) of 25 to 400 nM and a TGI [1, 4] of 56%. For the same molecule, the TGI [1, 5] was 70%, the TGI ([1]; daily oral administration, 120 mg/kg) was 70% and the TGI [2, 4] was 50%. For the same molecule, the TGI [2, 5] was 59%, the TGI [2, 6] was 50% and the TGI (HBL-1 (ABC); 60 mg/kg) was 32%. The TGI (HBL-1 (ABC); 120 mg/kg) was 36%, the TGI (TMD8 (ABC)) was 45%* and the TGI (WSU; 60 mg/kg) was 52%. For the same molecule, the TGI (WSU; [6]) was “approximately 50%”, the TGI ([3]; 60 mg/kg orally once daily for 14 days, TGI calculated on Day 16) was 33%** and the TGI [3, 6] was 37%.
